In US20240150293A1, “SPIROCYCLOHEXANE DERIVATIVES, PHARMACEUTICAL COMPOSITIONS CONTAINING THEM AND THEIR USES AS ANTI-APOPTOTIC INHIBITORS” (LES LABORATOIRES SERVIER, priority 2021, published 2024):
Where two headings read alike, the source gives them in different places.

Legend:
[1] = molecular target: Cy5-labelled Mcl1 (amino acids 171-321) C286S protein (UniProtKB Q07820) (Homo sapiens (Human), UniProt Q07820, C286S); assay: Inhibition of Mcl-1 by the fluorescence quenching assay (Example A, Method B); type: binding
Outline: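 Cy5-labelled Mcl1 171-321 C286S (1 nM) quenched by TQ5WS-labelled PUMA peptide (10, 20 or 400 nM); displacement raises fluorescence (Ex 620/Em 680 nm). Buffer 10 mM HEPES, 150 mM NaCl, 0.05% Tween 20, pH 7.4, 5% DMSO; 2 h at room temperature, 11-point curves, IC50 converted to Ki (cKi/eKi).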

[2] = test system: H929 multiple myeloma tumor line; assay: In vitro cytotoxicity, MTT assay (Example B, Method A); type: cell-based; conditions: H929 cells, 48 hours exposure, read-out: C50
Protocol: The cytotoxicity studies were carried out on the H929 multiple myeloma tumor line.
The cells are distributed onto microplates and exposed to the test compounds for 48 hours. The cell viability is then quantified by a colorimetric assay, the Microculture Tetrazolium Assay (Carmichael et al, Cancer Res. 1987, 47, 939-942).
The results are expressed in C50 which means concentration corresponding to […] of effect/inhibition.

Sequence of Cy5-labelled Mcl1 (amino acids 171-321) C286S protein (Q07820 171-321 C286S): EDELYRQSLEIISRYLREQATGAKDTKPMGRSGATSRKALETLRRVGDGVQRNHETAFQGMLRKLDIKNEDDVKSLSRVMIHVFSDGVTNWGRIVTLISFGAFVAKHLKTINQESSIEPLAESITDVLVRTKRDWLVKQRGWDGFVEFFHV

Compound	Ki [1] [nM]	IC50 ([2]; Homo sapiens, NCI-H929, 48 h) [nM]	IC50 [2] [nM]
C[C@@H](COc1ccnc2c1[C@H](C)CCC2)C[C@H]1Cc2ccccc2[C@]12CC[C@@](Nc1ccc(F)c(Br)c1)(C(=O)O)CC2 [Example 712, (1r,2′S,4S)-4-(3-bromo-4-fluoroanilino)-2′-[(2R)-2-methyl-3-{[(5R)-5-methyl-5,6,7,8-tetrahydroquinolin-4-yl]oxy}propyl]-2′,3′-dihydrospiro[cyclohexane-1,1′-indene]-4-carboxylic acid]	0.439	74	–
C[C@@H](COc1ccnc2c1C(OC(F)F)CCC2)C[C@H]1Cc2ccccc2[C@]12CC[C@@](Nc1cccc(Cl)c1)(C(=O)O)CC2 (stereo partly drawn) [Example 691, (1r,2′S,4S)-4-(3-chloroanilino)-2′-[(2R)-3-{[5-(difluoromethoxy)-5,6,7,8-tetrahydroquinolin-4-yl]oxy}-2-methylpropyl]-2′,3′-dihydrospiro[cyclohexane-1,1′-indene]-4-carboxylic acid]	10.9	806	–
C[C@@H](COc1ccnc2c1[C@H](C)CCC2)CC1Cc2c(Cl)c(F)ccc2[C@]12CC[C@@](Nc1cccc(Cl)c1)(C(=O)O)CC2 (single isomer, unassigned) [Example 747]	0.788	–	118
C[C@@H](CNc1ccnc2ccsc12)C[C@H]1Cc2ccccc2[C@]12CC[C@@](Nc1cccc(Cl)c1)(C(=O)O)CC2 [Example 627, (1r,2′S,4S)-4-(3-chloroanilino)-2′-{(2R)-2-methyl-3-[(thieno[3,2-b]pyridin-7-yl)amino]propyl}-2′,3′-dihydrospiro[cyclohexane-1,1′-indene]-4-carboxylic acid]	7.36	1330	–
C[C@@H](COc1ccnc2c1[C@H](C)CCC2)CC1=Cc2cc(F)c(F)cc2[C@]12CC[C@@](Nc1cccc(Cl)c1)(C(=O)O)CC2 [Example 774, (1r,4R)-4-(3-chloroanilino)-5′,6′-difluoro-2′-[(2R)-2-methyl-3-{[(5R)-5-methyl-5,6,7,8-tetrahydroquinolin-4-yl]oxy}propyl]spiro[cyclohexane-1,1′-indene]-4-carboxylic acid]	1.42	118	–
C[C@@H](COc1ccnc2c1[C@H](C)CC=C2)C[C@H]1Cc2ccccc2[C@]12CC[C@@](Nc1cccc(Cl)c1)(C(=O)O)CC2 [Example 677, (1r,2′S,4S)-4-(3-chloroanilino)-2′-[(2R)-2-methyl-3-{[(5R)-5-methyl-5,6-dihydroquinolin-4-yl]oxy}propyl]-2′,3′-dihydrospiro[cyclohexane-1,1′-indene]-4-carboxylic acid]	1.18	245	–
Cc1cccc2c1CC(C[C@@H](C)COc1ccnc3c1[C@H](C)CCC3)[C@]21CC[C@](Nc2cccc(Cl)c2)(C(=O)O)CC1 (single isomer, unassigned) [Example 755]	0.94	–	58.4
C[C@@H](COc1ccnc2c1[C@H](C)CC[C@H]2O)CC1=Cc2cc(F)ccc2[C@]12CC[C@@](Nc1cccc(Cl)c1)(C(=O)O)CC2 [Example 770, (1r,4R)-4-(3-chloroanilino)-5′-fluoro-2′-[(2R)-3-{[(5R,8R)-8-hydroxy-5-methyl-5,6,7,8-tetrahydroquinolin-4-yl]oxy}-2-methylpropyl]spiro[cyclohexane-1,1′-indene]-4-carboxylic acid]	0.35	90.6	–
C[C@@H](COc1ccnc2c1[C@@H](C)C(F)(F)CC2)C[C@H]1Cc2ccccc2[C@]12CC[C@@](Nc1cccc(Cl)c1)(C(=O)O)CC2 [Example 701, (1r,2′S,4S)-4-(3-chloroanilino)-2′-[(2R)-3-{[(5R)-6,6-difluoro-5-methyl-5,6,7,8-tetrahydroquinolin-4-yl]oxy}-2-methylpropyl]-2′,3′-dihydrospiro[cyclohexane-1,1′-indene]-4-carboxylic acid]	28.5	1560	–
C[C@@H]1CCCc2nccc(OCC(CC3=Cc4ccccc4[C@]34CC[C@@](Nc3cccc(Cl)c3)(C(=O)O)CC4)c3ccccn3)c21 (stereo partly drawn) [Example 566, (1r,4R)-4-(3-chloroanilino)-2′-[3-{[(5R)-5-methyl-5,6,7,8-tetrahydroquinolin-4-yl]oxy}-2-(pyridin-2-yl)propyl]spiro[cyclohexane-1,1′-indene]-4-carboxylic acid]	4.34	721	–
C[C@H]1Cc2nccc(OC[C@H](C)C[C@H]3Cc4ccccc4[C@]34CC[C@@](Nc3cccc(Cl)c3)(C(=O)O)CC4)c2[C@H](C)C1 [Example 667, (1r,2′S,4S)-4-(3-chloroanilino)-2′-[(2R)-3-{[(5R,7R)-5,7-dimethyl-5,6,7,8-tetrahydroquinolin-4-yl]oxy}-2-methylpropyl]-2′,3′-dihydrospiro[cyclohexane-1,1′-indene]-4-carboxylic acid]	4.05	574	–
Cc1cn(C[C@H](C)C[C@H]2Cc3ccccc3[C@]23CC[C@@](Nc2cccc(Cl)c2)(C(=O)O)CC3)c2c(c1=O)C(C)CCC2 (single isomer, unassigned) [Example 640]	980	–	18100
C[C@@H](COc1ccnc2c1[C@H](C)CCC2)C[C@@H]1Cc2cc(F)c(F)cc2[C@]12CC[C@@](Nc1cccc(Cl)c1)(C(=O)O)CC2 [Example 776, (1r,2′R,4R)-4-(3-chloroanilino)-5′,6′-difluoro-2′-[(2R)-2-methyl-3-{[(5R)-5-methyl-5,6,7,8-tetrahydroquinolin-4-yl]oxy}propyl]-2′,3′-dihydrospiro[cyclohexane-1,1′-indene]-4-carboxylic acid]	2.28	227	–
C[C@@H](COc1ccnc2c1[C@@H](C)CC[C@H]2O)C[C@H]1Cc2ccccc2[C@]12CC[C@@](Nc1cccc(Cl)c1)(C(=O)O)CC2 [Example 674, (1r,2′S,4S)-4-(3-chloroanilino)-2′-[(2R)-3-{[(5S,8R)-8-hydroxy-5-methyl-5,6,7,8-tetrahydroquinolin-4-yl]oxy}-2-methylpropyl]-2′,3′-dihydrospiro[cyclohexane-1,1′-indene]-4-carboxylic acid]	6.95	1710	–
C[C@@H](COc1ccncc1C1CC1)C[C@H]1Cc2ccccc2[C@]12CC[C@@](Nc1cccc(Cl)c1)(C(=O)O)CC2 [Example 577, (1r,2′S,4S)-4-(3-chloroanilino)-2′-{(2R)-3-[(3-cyclopropylpyridin-4-yl)oxy]-2-methylpropyl}-2′,3′-dihydrospiro[cyclohexane-1,1′-indene]-4-carboxylic acid]	10.4	1190	–
Cc1cc(C(C)O)cc2c1C=C(C[C@@H](C)COc1ccnc3c1[C@H](C)CCC3)[C@]21CC[C@](Nc2cccc(Cl)c2)(C(=O)O)CC1 (single isomer, unassigned) [Example 759]	0.303	–	185
C[C@@H](COc1ccnc2c1CCC[C@H]2F)C[C@H]1Cc2ccccc2[C@]12CC[C@@](Nc1cccc(Cl)c1)(C(=O)O)CC2 [Example 681, (1r,2′S,4S)-4-(3-chloroanilino)-2′-[(2R)-3-{[(8R)-8-fluoro-5,6,7,8-tetrahydroquinolin-4-yl]oxy}-2-methylpropyl]-2′,3′-dihydrospiro[cyclohexane-1,1′-indene]-4-carboxylic acid]	3.26	1160	–
C[C@@H](COc1ccnc2c1[C@H](C)CC[C@H]2F)C[C@H]1Cc2ccccc2[C@]12CC[C@@](Nc1cccc(Cl)c1)(C(=O)O)CC2 [Example 689, (1r,2′S,4S)-4-(3-chloroanilino)-2′-[(2R)-3-{[(5R,8R)-8-fluoro-5-methyl-5,6,7,8-tetrahydroquinolin-4-yl]oxy}-2-methylpropyl]-2′,3′-dihydrospiro[cyclohexane-1,1′-indene]-4-carboxylic acid]	1.46	117	–
Cc1cn(C[C@H](C)C[C@H]2Cc3ccccc3[C@]23CC[C@@](Nc2cccc(Cl)c2)(C(=O)O)CC3)c2c(c1=O)C(C)CCC2 (single isomer, unassigned) [Example 639]	37.2	12600	–
COCc1ccc2c(c1)[C@]1(CC[C@@](Nc3cccc(Cl)c3)(C(=O)O)CC1)[C@H](C[C@@H](C)COc1ccnc3c1[C@H](C)CCC3)C2 [Example 920, (1r,2′R,4R)-4-(3-chloroanilino)-6′-(methoxymethyl)-2′-[(2R)-2-methyl-3-{[(5R)-5-methyl-5,6,7,8-tetrahydroquinolin-4-yl]oxy}propyl]-2′,3′-dihydrospiro[cyclohexane-1,1′-indene]-4-carboxylic acid]	3.85	104	–
CC(O)c1ccc2c(c1)[C@]1(CC[C@@](Nc3cccc(Cl)c3)(C(=O)O)CC1)[C@@H](C[C@@H](C)COc1ccnc3ccsc13)C2 (stereo partly drawn) [Example 722, (1r,2′S,4S)-4-(3-chloroanilino)-6′-(1-hydroxyethyl)-2′-{(2R)-2-methyl-3-[(thieno[3,2-b]pyridin-7-yl)oxy]propyl}-2′,3′-dihydrospiro[cyclohexane-1,1′-indene]-4-carboxylic acid]	0.349	244	–
C[C@@H](COc1ccnc2c1[C@H](C)CCC2)C[C@@H]1Cc2cc(Cl)ccc2[C@]12CC[C@@](Nc1cccc(Cl)c1)(C(=O)O)CC2 [Example 779, (1r,2′R,4R)-5′-chloro-4-(3-chloroanilino)-2′-[(2R)-2-methyl-3-{[(5R)-5-methyl-5,6,7,8-tetrahydroquinolin-4-yl]oxy}propyl]-2′,3′-dihydrospiro[cyclohexane-1,1′-indene]-4-carboxylic acid]	0.423	143	–
C[C@@H]1CCCc2nccc(OCC(F)CC3Cc4ccccc4[C@]34CC[C@@](Nc3cccc(Cl)c3)(C(=O)O)CC4)c21 (single isomer, unassigned) [Example 507]	8.76	–	2240
